Measured values reported in the supplement of paper PMC10307832.

Columns and labels:
Test in all cases: relative viability (nuclei count vs DMSO), 5 days (fraction); higher = more cells survive
[1] = compound: C1COCCN1C2=NC(=NC3=C2OC4=C3C=CC=N4)C5=CC(=CC=C5)NC(=O)C6=CN=C(C=C6)N + CC(C)C[C@H](NC(=O)[C@H](Cc1ccccc1)NC(=O)c1cnccn1)B(O)O [Bortezomib] (partner 0.002 µM)
In short: (§1)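 After 5 days of treatment, lung cancer cells in 1536-well plates were fixed and stained in a single step (final 0.05% Triton X-100, 1% formaldehyde, 1 ug/ml Hoechst) and their nuclei counted on 4× images. Treatment had been applied by pin tool the day after seeding as one drug alone or as a fixed anchor-drug dose with five library-drug doses (not always all listed) in √10 steps. Relative viability is the nuclei count of treated wells divided by that of vehicle wells, and values are medians of duplicate plates.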

[2] = compound: C1COCCN1C2=NC(=NC3=C2OC4=C3C=CC=N4)C5=CC(=CC=C5)NC(=O)C6=CN=C(C=C6)N + C[C@]1(O)C[C@@H](c2nc(-c3ccc4ccc(-c5ccccc5)nc4c3)c3c(N)nccn32)C1 [Linsitinib] (partner 1 µM)
In short: as §1

[3] = compound: C1COCCN1C2=NC(=NC3=C2OC4=C3C=CC=N4)C5=CC(=CC=C5)NC(=O)C6=CN=C(C=C6)N + N=C(N)NC(=N)NCCc1ccccc1 [Phenformin] (partner 250 µM)
In short: as §1

[4] = compound: Nc1ccccc1NC(=O)c1ccc(CNC(=O)OCc2cccnc2)cc1 [Entinostat] + Cc1nc(Nc2ncc(C(=O)Nc3c(C)cccc3Cl)s2)cc(N2CCN(CCO)CC2)n1 [Dasatinib] (partner 0.075 µM)
In short: as §1

| Cell Line | relative viability ([1]; first compound 0.02 µM) | relative viability ([1]; first compound 0.06325 µM) | relative viability ([1]; first compound 0.2 µM) | relative viability ([1]; first compound 0.6325 µM) | relative viability ([1]; first compound 2 µM) | relative viability ([2]; first compound 0.02 µM) | relative viability ([2]; first compound 0.06325 µM) | relative viability ([2]; first compound 0.2 µM) | relative viability ([2]; first compound 0.6325 µM) | relative viability ([2]; first compound 2 µM) | relative viability ([3]; first compound 0.02 µM) | relative viability ([3]; first compound 0.06325 µM) | relative viability ([3]; first compound 0.2 µM) | relative viability ([3]; first compound 0.6325 µM) | relative viability ([3]; first compound 2 µM) | relative viability ([4]; first compound 0.02 µM) | relative viability ([4]; first compound 0.06325 µM) | relative viability ([4]; first compound 0.2 µM) | relative viability ([4]; first compound 0.6325 µM) | relative viability ([4]; first compound 2 µM) |
| --- | --- | --- | --- | --- | --- | --- | --- | --- | --- | --- | --- | --- | --- | --- | --- | --- | --- | --- | --- | --- |
| EMC-BAC-2 | 1.1 | 1.14 | 1.06 | 1 | 0.784 | 0.815 | 0.83 | 0.749 | 0.762 | 0.491 | 0.543 | 0.56 | 0.451 | 0.469 | 0.304 | 0.349 | 0.318 | 0.298 | 0.177 | 0.109 |
| CAL-12T | 0.935 | 0.98 | 0.861 | 0.871 | 0.84 | 0.622 | 0.813 | 0.886 | 0.782 | 0.584 | 0.525 | 0.561 | 0.533 | 0.498 | 0.247 | 0.571 | 0.427 | 0.375 | 0.295 | 0.218 |
| NCI-H661 | 0.772 | 0.747 | 0.741 | 0.657 | 0.63 | 0.533 | 0.645 | 0.645 | 0.421 | 0.386 | 0.268 | 0.3 | 0.263 | 0.248 | 0.206 | 1.04 | 0.967 | 1.03 | 0.771 | 0.372 |
| NCI-H1437 | 0.428 | 0.733 | 0.483 | 0.474 | 0.185 | 1.05 | 1.08 | 1.07 | 1.01 | 0.314 | 0.343 | 0.351 | 0.286 | 0.225 | 0.114 | 0.434 | 0.423 | 0.188 | 0.137 | 0.126 |
| PC-14 | 0.877 | 1.04 | 0.835 | 0.822 | 0.375 | 0.991 | 0.999 | 0.953 | 0.86 | 0.502 | 0.478 | 0.36 | 0.397 | 0.446 | 0.268 | 0.236 | 0.261 | 0.217 | 0.118 | 0.0579 |
| NCI-H1651 | 1.03 | 0.998 | 0.946 | 0.921 | 0.743 | 0.996 | 0.917 | 0.957 | 1.09 | 0.357 | 0.333 | 0.302 | 0.315 | 0.321 | 0.182 | 0.447 | 0.527 | 0.402 | 0.338 | 0.192 |
| LC-2-ad | 1.09 | 1.05 | 0.998 | 1.03 | 0.898 | 0.836 | 0.866 | 0.837 | 0.826 | 0.589 | 0.551 | 0.598 | 0.456 | 0.493 | 0.49 | 0.516 | 0.533 | 0.428 | 0.222 | 0.165 |
| NCI-H1734 | 1.15 | 1.02 | 0.835 | 0.801 | 0.462 | 0.865 | 0.938 | 0.86 | 0.84 | 0.467 | 0.372 | 0.387 | 0.371 | 0.338 | 0.251 | 0.486 | 0.585 | 0.578 | 0.476 | 0.403 |
| NCI-H441 | 0.342 | 0.638 | 0.565 | 0.648 | 0.274 | 0.522 | 0.609 | 0.569 | 0.534 | 0.357 | 0.798 | 0.868 | 0.731 | 0.833 | 0.527 | 0.705 | 0.602 | 0.557 | 0.259 | 0.124 |
| NCI-H727 | 0.748 | 0.834 | 0.806 | 1.12 | 0.536 | 0.284 | 0.31 | 0.24 | 0.257 | 0.256 | 0.441 | 0.629 | 0.502 | 0.469 | 0.458 | 0.475 | 0.419 | 0.412 | 0.219 | 0.273 |
| NCI-H23 | 1.15 | 1.44 | 1.15 | 0.899 | 0.446 | 0.6 | 0.576 | 0.499 | 0.534 | 0.497 | 0.818 | – | 0.815 | 0.747 | 0.669 | 0.781 | 0.971 | 0.961 | 0.741 | 0.378 |
| NCI-H596 | 0.9 | 1.21 | 0.963 | 1 | 0.684 | 0.959 | 1.15 | 1.1 | 0.96 | 0.727 | 0.768 | 0.916 | 0.754 | 0.598 | 0.61 | 0.627 | 0.593 | 0.576 | 0.448 | 0.378 |
| NCI-H460 | 1.45 | 1.13 | 1.27 | 1.02 | 0.125 | 0.839 | 0.959 | 0.834 | 0.583 | 0.225 | 0.554 | 0.57 | 0.512 | 0.144 | 0.0234 | 0.52 | 0.548 | 0.235 | 0.0904 | 0.0466 |
